For data set [1] the following is noted: for surface tension liquid-gas: Ring tensiometer; for viscosity: 100 kPa, Liquid, Capillary tube (Ostwald / Ubbelohde) method.
The nature of data set [2]: mn = molality of the nth substance listed, in mol/kg. Particulars: m2 = 0; for surface tension liquid-gas: Ring tensiometer; for viscosity / mass density / speed of sound: 100 kPa, Liquid; for viscosity: Capillary tube (Ostwald / Ubbelohde) method; for mass density: Vibrating tube method; for speed of sound: Frequency=3 MHz, Single path-length method.

SMILES strings stand for the structures. ± gives the expanded uncertainty stated by the source.

The term surface tension liquid-gas denotes the force per length acting along the surface. What is called viscosity is the resistance of a fluid to flow. On to `O` [water], for which the surface tension liquid-gas in data set [1] (293.15 K) amounted to 72.6 ± 0.9 mN/m; in data set [1] (303.15 K), 71.1 ± 0.9 mN/m; in data set [1] (313.15 K), 69.2 ± 0.9 mN/m; in data set [1] (323.15 K), 67.7 ± 0.9 mN/m. Moreover, the viscosity is 0.993 ± 0.05 mPa·s in data set [1] (293.15 K), 0.802 ± 0.05 mPa·s in data set [1] (303.15 K), 0.661 ± 0.05 mPa·s in data set [1] (313.15 K) and 0.555 ± 0.05 mPa·s in data set [1] (323.15 K).
One may read the mass density as mass per unit of volume. The speed of sound is how fast a sound wave travels through the sample. Turning to `O` [water] + C1N2CN3CN1CN(C2)C3, in data set [2] (293.15 K), the surface tension liquid-gas is 72.6 ± 0.9 mN/m and the viscosity amounted to 0.993 ± 0.05 mPa·s. In data set [2] (303.15 K), the surface tension liquid-gas is recorded as 71.1 ± 0.9 mN/m, the viscosity stood at 0.802 ± 0.05 mPa·s and the mass density is listed as 995.9 ± 2 kg/m3. In data set [2] (313.15 K), the surface tension liquid-gas is 69.2 ± 0.9 mN/m, the viscosity is listed as 0.661 ± 0.05 mPa·s, the speed of sound was 1529.1 ± 0.7 m/s and the mass density came to 992.3 ± 2 kg/m3. In data set [2] (323.15 K), the surface tension liquid-gas worked out at 67.7 ± 0.9 mN/m, the viscosity is recorded as 0.555 ± 0.05 mPa·s and the speed of sound turned out to be 1541.5 ± 0.7 m/s.

Source of the values: the NIST ThermoML archive (doi:10.1021/acs.jced.8b00492).
